Columns and labels:
[1] = system: crude water-insoluble glucan producing enzyme; experiment: Test for the production of water-insoluble glucan; format: biochemical, Streptococcus mutans OMZ-176
Experimental: To examine the effect of the syrup containing saccharide derivatives of α,α-trehalose, prepared in Example 6, on the production of water-insoluble glucan, the following experiment was carried out. According to usual method, Streptococcus mutans OMZ-176 was cultured to prepare a crude water-insoluble glucan producing enzyme solution (25 mg protein/ml). Test saccharide solutions were prepared by dissolving the syrup prepared in Example 1, the syrup prepared in Example 6, or α-maltosyl α,α-trehalose used in Experiment 1 in purified water to give a final concentration 2% on a dry solid basis. A half milliliter of one of the test saccharide solution was admixed with 0.25 ml of the crude water-insoluble glucan producing enzyme solution, 0.75 ml of 0.1 M phosphate buffer, and 0.5 ml of 2% sucrose. The resulting reaction mixture was placed in a new test tube (sized with 10 mm in diameter and 130 mm in height) slanted at an elevation angle of 30 degrees, and kept at 37° C. for 16 hours. The supernatant was gently collected. The remaining precipitate was washed with deionized water by centrifuging twice to collect a precipitate as adherent glucan. The washing solution and the above supernatant was mixed together and centrifuged at 5,000 rpm for 10 minutes to collect precipitate. The resulting precipitate was washed with deionized water and centrifuged to collect a non-adherent glucan. The adherent and non-adherent glucan were weighed. The total weight thereof was calculated as water-insoluble glucan. As a control, distilled water was used instead of the test saccharide solution. The water-insoluble glucan as control were weighed in the same manner. Inhibitory rate (%) of the production of water-insoluble glucan was calculated in such a manner of dividing the value of each test saccharide solution by that of the control, multiplying the resulting value by 100, and subtracting the resulting value from 100.

[2] = system: Streptococcus mutans OMZ-176; experiment: Test for acidic fermentation; format: cell-based
Experimental: (§1) The resulting precipitate was washed with Stephan buffer (pH7.0), and centrifuged to collect a bacteria precipitate. Equal volume of Stephan buffer was added to the bacteria precipitate, followed by suspending the precipitate in the buffer to give a final concentration of 50% (v/v) in order to prepare two bacteria suspensions for testing. A half milliliter of the bacteria suspension was admixed with 0.5 ml of the above test saccharide solution and incubated at 37° C. for 90 minutes, while measuring the pH at 5, 15, 30, 60, and 90 minutes after the initiation of the culture. The Stephan's buffer was prepared by admixing 1 ml of “solution A” and “solution B” with distilled water to give a final volume 100 ml, and adjusting to pH7.0 (“solution A”: dissolving 71 g of Na2HPO4, 7.92 g of KOH and 68.1 g of KH2PO4 in distilled water to give a final volume 1,000 ml; and “solution B”: dissolving 45.4 g of KH2PO4, 3.2 g of MgSO4 2H2O and 100 ml of 1.2N HCl in distilled water to give a final volume 1,000 ml).

[3] = system: Streptococcus sobrinus 6715; experiment: Test for acidic fermentation; format: cell-based
Experimental: as §1

[4] = Hygroscopicity and solubility in water of the products; format: physicochemical
[5] = system: Mouse fibroblast cells (L-929); experiment: Test for cell protection (Alamar Blue); format: cell-based; conditions: 1% in D-MEM before one-hour drying
Experimental: To examine the influence of the syrup containing saccharide derivatives of α,α-trehalose, prepared in Example 6, on cell protection, the following experiment was carried out. […] As controls, control media containing D-MEM supplemented with 10% fetal calf serum and optionally containing 1% glycerin were prepared. The control mediums were added in the medium-removed wells of the remaining four plates, respectively. The cells were cultured for one day, dried for one hour in such a manner of keeping in opened plate under the sterile condition after the medium was removed from the wells by aspiration. Then, the cells were cultured in D-MEM supplemented with 10% fetal calf serum for three days while changing the medium once a day. The resulting plates were subjected to the measurement of cell amount of each well using “Alamar Blue” commercialized by Wako Pure Chemical Industries, Ltd., Osaka, Japan, just after the drying, and four hours, one day, two days or three days after the drying. […] In detail, the medium was added to each well in an amount of 4 ml. One plate was used for each measurement for the amount of cells treated with the test medium or the two control mediums. […] As evidence from the result in Table 10, the test medium or the control media increased the rate of cell proliferation of fibroblast cells. The control medium containing 1% of glycerin increased cell amount almost equal to the control medium containing only D-MEM. […] Influence caused by UV-irradiation was examined in the same manner as above instead of exposure to a drying condition (data not shown).

[6] = system: TNF-α; experiment: Production of TNF-α by macrophage cell line RAW264.7 stimulated with IFN-γ and LPS; format: cell-based; conditions: data not shown
Source text: Glycerin enhanced the production of TNF-α in a concentration-dependent manner and inhibited the production of ICAM-1 molecule.

[7] = Test for absorbing or releasing moisture (comparison with usual moisturizing agents); format: physicochemical; conditions: 75% sample, after RH 60% for 216 hours
Experimental: The syrup containing saccharide derivatives of α,α-trehalose was confirmed to have a satisfactory property of absorbing and releasing moisture. To compare other saccharide used as a usual moisturizing agent for cosmetics, the following experiment was carried out. Test samples, containing 75%, on a dry solid basis, of either of the syrup prepared in Example 6, concentrated glycerin, sorbitol or maltitol, were prepared. About 1 g of each solution was placed in two containers. The containers were preciously weighed and kept at RH 60% for 216 hours. One of containers was kept at RH 80% and the other container was kept at PH 33%. After 24 hours or 168 hours, they were weighed.

[8] = Browning of L-ascorbic acid kept at 50° C. for 14 days (Experiment 3); format: physicochemical
Experimental: An aqueous solution further containing 10 parts by weight of glycerin (concentrated glycerin in cosmetic grade, commercialized by Kao Co., Ltd., Tokyo, Japan) instead of saccharide derivatives of α,α-trehalose was prepared. Three resulting solutions were kept at 50° C. under the shaded condition for 14 days. To examine browning, values of absorbance 420 nm of the test samples were measured by usual method and compared with that of the starting test samples. To examine the degree of coloring, relative values of test samples were calculated by comparing the value of differential absorbance of the solution containing only L-ascorbic acid, defined as 100%. Degree of coloring=(Difference of absorbance of test sample containing saccharide derivatives of α,α-trehalose or glycerin)/(Difference of absorbance of control sample containing only L-ascorbic acid)×100

[9] = 2% test saccharide solution with sucrose, 37° C., 16 hours
[10] = 0.7% test saccharide solution, 37° C., reaction time 0 minute
[11] = reaction time 5 minutes, listed as sucrose

Structure (SMILES)	pH [2, 10]	pH ([2]; reaction time 5 minutes)	pH ([2]; reaction time 15 minutes)	pH ([2]; reaction time 30 minutes)	pH ([2]; reaction time 60 minutes)	pH ([2]; reaction time 90 minutes)	pH [3, 10]	pH ([3]; reaction time 5 minutes)	pH ([3]; reaction time 15 minutes)	pH ([3]; reaction time 30 minutes)	pH ([3]; reaction time 60 minutes)	pH ([3]; reaction time 90 minutes)	Relative weight change rate (%) ([7]; RH 33%, 0 hour)	Relative weight change rate (%) ([7]; RH 33%, 24 hours)	Relative weight change rate (%) ([7]; RH 33%, 168 hours)	Relative weight change rate (%) ([7]; RH 80%, 0 hour)	Relative weight change rate (%) ([7]; RH 80%, 24 hours)	Relative weight change rate (%) ([7]; RH 80%, 168 hours)	also measured
OC[C@H]1O[C@H](O[C@H]2O[C@H](CO)[C@@H](O[C@H]3O[C@H](CO)[C@@H](O[C@H]4O[C@H](CO)[C@@H](O)[C@H](O)[C@H]4O)[C@H](O)[C@H]3O)[C@H](O)[C@H]2O)[C@H](O)[C@@H](O)[C@@H]1O [Example 5, α-maltosyl α,α-trehalose]	6.72	6.70	6.64	6.58	6.51	6.43	6.72	6.70	6.64	6.58	6.51	6.43							Production of water-insoluble glucan, Adhesive glucan [1, 9]: 1120 μg/10 mg sucrose; Production of water-insoluble glucan, Non-adhesive glucan [1, 9]: 1009 μg/10 mg sucrose; Production of water-insoluble glucan, Total glucan [1, 9]: 2129 μg/10 mg sucrose; Inhibition rate of production, Adhesive glucan ([1]; versus distilled water): (50) %; Inhibition rate of production, Non-adhesive glucan ([1]; versus distilled water): (13) %; Inhibition rate of production, Total glucan ([1]; versus distilled water): (37) %; hygroscopicity [4]: low; solubility in water [4]: satisfactory
OCC(O)CO [Glycerin, glycerin]													0.0	−13.8	−18.8	0.0	8.2		Rate of cell proliferation (%) ([5]; One day after dried): 165%; Rate of cell proliferation (%) ([5]; One hour (defined as 100%)): 100%; Rate of cell proliferation (%) ([5]; Three days after dried): 243%; Rate of cell proliferation (%) ([5]; Two days after dried): 235%; production of TNF-α [6]: inhibited the production of TNF-α in a concentration-dependent manner
O=C1O[C@H]([C@@H](O)CO)C(O)=C1O [L-Ascorbic acid, L-ascorbic acid]																			Absorbance of test sample kept after 14 days (420 nm) ([8]; 50° C., shaded, 14 days): 5.000; Difference of absorbance (420 nm) ([8]; 14 days minus starting): 4.999; Absorbance of starting test sample (420 nm) ([8]; pH 6.5 aqueous solution): 0.001; Degree of coloring (%) ([8]; relative to solution containing only L-ascorbic acid as 100%): 100%
OC[C@@H](O)[C@@H](O[C@H]1O[C@H](CO)[C@@H](O)[C@H](O)[C@H]1O)[C@H](O)[C@@H](O)CO [Maltitol, maltitol]													0.0	−1.4	−4.2	0.0	3.5	5.3	
OC[C@@H](O)[C@@H](O)[C@H](O)[C@@H](O)CO [Sorbitol, sorbitol]													0.0	−2.4	−5.0	0.0	5.4	10.7	
OC[C@H]1O[C@@](CO)(O[C@H]2O[C@H](CO)[C@@H](O)[C@H](O)[C@H]2O)[C@@H](O)[C@@H]1O [Sucrose, sucrose]	6.60	4.05	3.97	3.99	3.99	4.01	6.74	4.18	3.87	3.81	3.82	3.91							pH [2, 11]: about 4.0; pH [3, 11]: about 4.0
